Among the data in ChEMBL document CHEMBL3272271, “Folate antagonists. 13. 2,4-Diamino-6-](alpha,alpha,alpha-trifluoro-m-tolyl)thio]quinazoline and related 2,4-diamino-6-[(phenyl- and naphthyl)thio]quinazolines, a unique class of antimetabolites with extraordinary antimalarial and antibacterial effects” (J Med Chem, 1978) are MIC, MST and Activity values, retold here.

SMILES strings stand for the structures. ≈ marks a conversion by molar mass, not a printed value. Calls of active or inactive are those of the source. The calls are words filed in the database; no cut-off is given here.

In one assay the test system is Enterococcus faecalis. Kind of assay: Antibacterial activity against Streptococcus faecalis MGH-2 by gradient plate test. The assay is classed as functional.
Assay [1] relates to Staphylococcus aureus. Put plainly: Antibacterial activity against Staphylococcus aureus UC-96 by gradient plate test. The assay is classed as functional.
Assay [2] deals with Staphylococcus aureus. Put plainly: Antibacterial activity against drug-resistant Staphylococcus aureus S18713 by gradient plate test. The assay is classed as functional.
For the next assay, the system named is Pseudomonas aeruginosa. Put plainly: Antibacterial activity against Pseudomonas aeruginosa 28 by gradient plate test. The assay is classed as functional.
The subject of a further assay is Escherichia coli. Put plainly: Antibacterial activity against Escherichia coli Vogel by gradient plate test. The assay is classed as functional.
In a further assay the test system is Shigella sonnei. Put plainly: Antibacterial activity against Shigella sonnei C-10 by gradient plate test. The assay is classed as functional.
Assay [3] has as its system Mycobacterium tuberculosis. Put plainly: Antibacterial activity against Mycobacterium tuberculosis H37Ra by gradient plate test. The assay is classed as functional.
Assay [4] concerns Plasmodium berghei. Kind of assay: Antimalarial activity against Plasmodium berghei infected in mouse assessed as increase in mean survival days of host at 20 mg/kg, sc administered 72 hrs after infection relative to control. The assay is classed as functional. The settings on record: route subcutaneous.
The subject of assay [5] is Plasmodium berghei. Kind of assay: Antimalarial activity against Plasmodium berghei infected in mouse assessed as increase in mean survival days of host at 10 mg/kg, sc administered 72 hrs after infection relative to control. In kind it is functional. As to conditions: route subcutaneous.
Assay [6] concerns Plasmodium berghei. Kind of assay: Antimalarial activity against Plasmodium berghei infected in mouse assessed as increase in mean survival days of host at 5 mg/kg, sc administered 72 hrs after infection relative to control. The settings on record: route subcutaneous. In kind it is functional.
For assay [7], the system named is Plasmodium berghei. Put plainly: Antimalarial activity against Plasmodium berghei infected in mouse assessed as increase in mean survival days of host at 2.5 mg/kg, sc administered 72 hrs after infection relative to control. The assay is classed as functional. As to conditions: route subcutaneous.
In assay [8] the test system is Plasmodium berghei. Put plainly: Antimalarial activity against Plasmodium berghei infected in mouse assessed as increase in mean survival days of host at 1.25 mg/kg, sc administered 72 hrs after infection relative to control. In kind it is functional. As to conditions: route subcutaneous.
For assay [9], the system named is Plasmodium berghei. Kind of assay: Antimalarial activity against Plasmodium berghei infected in mouse assessed as disease cure from parasite infection at 640 mg/kg, sc administered 72 hrs after infection. The assay is classed as functional, organism-based. Set-up: dose 640 mg/kg.
Assay [10] concerns Plasmodium berghei. Put plainly: Antimalarial activity against Plasmodium berghei infected in mouse assessed as disease cure from parasite infection at 320 mg/kg, sc administered 72 hrs after infection. The assay is classed as functional, organism-based. Details: dose 320 mg/kg.
The test system of assay [11] is Plasmodium berghei. Kind of assay: Antimalarial activity against Plasmodium berghei infected in mouse assessed as disease cure from parasite infection at 160 mg/kg, sc administered 72 hrs after infection. In kind it is functional, organism-based. Details: dose 160 mg/kg.
The subject of assay [12] is Plasmodium berghei. Kind of assay: Antimalarial activity against Plasmodium berghei infected in mouse assessed as disease cure from parasite infection at 80 mg/kg, sc administered 72 hrs after infection. Details: dose 80 mg/kg. In kind it is functional, organism-based.
For assay [13], the system named is Plasmodium berghei. Put plainly: Antimalarial activity against Plasmodium berghei infected in mouse assessed as disease cure from parasite infection at 40 mg/kg, sc administered 72 hrs after infection. In kind it is functional, organism-based. Set-up: dose 40 mg/kg.
In assay [14] the test system is Plasmodium berghei. Kind of assay: Antimalarial activity against Plasmodium berghei infected in mouse assessed as disease cure from parasite infection at 20 mg/kg, sc administered 72 hrs after infection. Set-up: dose 20 mg/kg. In kind it is functional, organism-based.
In assay [15] the test system is Plasmodium berghei. Put plainly: Antimalarial activity against Plasmodium berghei infected in mouse assessed as disease cure from parasite infection at 10 mg/kg, sc administered 72 hrs after infection. Set-up: dose 10 mg/kg. In kind it is functional, organism-based.
Assay [16] concerns Plasmodium berghei. Kind of assay: Antimalarial activity against Plasmodium berghei infected in mouse assessed as disease cure from parasite infection at 5 mg/kg, sc administered 72 hrs after infection. In kind it is functional, organism-based. Set-up: dose 5 mg/kg.
Assay [17] relates to Plasmodium gallinaceum. Kind of assay: Antimalarial activity against trophozoite-induced Plasmodium gallinaceum infected in white leghorn chicken assessed as disease cure from parasite infection at 320 mg/kg, sc administered 72 hrs after infection. The assay is classed as functional, organism-based. Details: dose 320 mg/kg.
In assay [18] the test system is Plasmodium gallinaceum. Put plainly: Antimalarial activity against trophozoite-induced Plasmodium gallinaceum infected in white leghorn chicken assessed as disease cure from parasite infection at 160 mg/kg, sc administered 72 hrs after infection. The assay is classed as functional, organism-based. Details: dose 160 mg/kg.
The subject of assay [19] is Plasmodium gallinaceum. Put plainly: Antimalarial activity against trophozoite-induced Plasmodium gallinaceum infected in white leghorn chicken assessed as disease cure from parasite infection at 80 mg/kg, sc administered 72 hrs after infection. In kind it is functional, organism-based. Set-up: dose 80 mg/kg.
Assay [20] has as its system Plasmodium gallinaceum. Put plainly: Antimalarial activity against trophozoite-induced Plasmodium gallinaceum infected in white leghorn chicken assessed as disease cure from parasite infection at 40 mg/kg, sc administered 72 hrs after infection. The assay is classed as functional, organism-based. Set-up: dose 40 mg/kg.
Assay [21] has as its system Plasmodium gallinaceum. Kind of assay: Antimalarial activity against sporozoite-induced Plasmodium gallinaceum infected in white leghorn chicken assessed as disease cure from parasite infection at 480 mg/kg, sc administered 72 hrs after infection. In kind it is functional, organism-based. Details: dose 480 mg/kg.
Assay [22] concerns Plasmodium gallinaceum. Put plainly: Antimalarial activity against sporozoite-induced Plasmodium gallinaceum infected in white leghorn chicken assessed as disease cure from parasite infection at 240 mg/kg, sc administered 72 hrs after infection. The assay is classed as functional, organism-based. Set-up: dose 240 mg/kg.
Assay [23] relates to Plasmodium gallinaceum. Kind of assay: Antimalarial activity against sporozoite-induced Plasmodium gallinaceum infected in white leghorn chicken assessed as disease cure from parasite infection at 120 mg/kg, sc administered 72 hrs after infection. In kind it is functional, organism-based. Details: dose 120 mg/kg.
The test system of assay [24] is Plasmodium gallinaceum. Put plainly: Antimalarial activity against sporozoite-induced Plasmodium gallinaceum infected in white leghorn chicken assessed as disease cure from parasite infection at 60 mg/kg, sc administered 72 hrs after infection. The assay is classed as functional, organism-based. Details: dose 60 mg/kg.
In assay [25] the test system is Plasmodium gallinaceum. Put plainly: Antimalarial activity against sporozoite-induced Plasmodium gallinaceum infected in white leghorn chicken assessed as disease cure from parasite infection at 30 mg/kg, sc administered 72 hrs after infection. The assay is classed as functional, organism-based. Set-up: dose 30 mg/kg.
For assay [26], the system named is Plasmodium gallinaceum. Kind of assay: Antimalarial activity against sporozoite-induced Plasmodium gallinaceum infected in white leghorn chicken assessed as disease cure from parasite infection at 15 mg/kg, sc administered 72 hrs after infection. In kind it is functional, organism-based. Details: dose 15 mg/kg.
Assay [27] has as its system Plasmodium gallinaceum. Put plainly: Antimalarial activity against sporozoite-induced Plasmodium gallinaceum infected in white leghorn chicken assessed as disease cure from parasite infection at 7.5 mg/kg, sc administered 72 hrs after infection. Set-up: dose 7.5 mg/kg. In kind it is functional, organism-based.

The MIC is the lowest concentration found to suppress growth. For `Nc1nc(N)c2c(Cl)c(Sc3ccc4ccccc4c3)ccc2n1`, the MIC against Enterococcus faecalis was < 0.25 µg/mL; in the assay with Staphylococcus aureus [1], 1.5 µg/mL (≈ 4.25 µM); in the assay with Staphylococcus aureus [2], 5 µg/mL (≈ 14.2 µM); against Pseudomonas aeruginosa, > 25 µg/mL; in the assay on Escherichia coli it was 10 µg/mL (≈ 28.3 µM); in the assay with Shigella sonnei, > 25 µg/mL. The molecule further registered an MIC in assay [3] of 10 µg/mL (≈ 28.3 µM). Also, the MST in the assay on Plasmodium berghei [4] came to 15.9 days; in the assay with Plasmodium berghei [5] it was 15.9 days; in the assay with Plasmodium berghei [6], 12.7 days; with Plasmodium berghei [7], 7.9 days; in the assay with Plasmodium berghei [8] it was 5.5 days. For the same molecule, the outcome with Plasmodium berghei [9], in the assay on Plasmodium berghei [10], in the assay on Plasmodium berghei [11], in the assay with Plasmodium berghei [12], with Plasmodium berghei [13] and in the assay with Plasmodium berghei [14] was Active. In addition, the outcome in the assay on Plasmodium berghei [15] and in the assay on Plasmodium berghei [16] was Active.

`Nc1nc(N)c2cc(NCc3ccc(Cl)c(Cl)c3)ccc2n1`: the outcome in the assay with Plasmodium gallinaceum [17], in the assay with Plasmodium gallinaceum [18], with Plasmodium gallinaceum [19], with Plasmodium gallinaceum [20], in the assay on Plasmodium gallinaceum [21] and in the assay on Plasmodium gallinaceum [22] was Active. The result in the assay on Plasmodium gallinaceum [23], in the assay on Plasmodium gallinaceum [24], with Plasmodium gallinaceum [25], in the assay on Plasmodium gallinaceum [26], with Plasmodium gallinaceum [27] and in the assay on Plasmodium berghei [9] was Active. Moreover, the outcome with Plasmodium berghei [10] and with Plasmodium berghei [11] was Active.
